{"source": "ChEMBL document CHEMBL5614416", "about": "“Discovery of novel thiophene[3,2-d]pyrimidine-based tubulin inhibitors with enhanced antitumor efficacy for combined use with anti-pd-l1 immunotherapy in melanoma” (Eur J Med Chem, 2024)", "key": {"[1]": {"assay": "Toxicity in C57 mouse xenografted with mouse B16-F10 cells assessed as MCHC level at 7 mg/kg, ip qd for 12 days by biochemical analysis (reference value: 324.000 to 683.000 g/L)", "format": "organism-based", "conditions": "in vivo, 288 h, time 12 day"}, "B16-F10 [2]": {"tested_on": "B16-F10", "assay": "Induction of apoptosis in mouse B16-F10 cells assessed as late apoptotic cells at 2 nM incubated for 12 hrs by Annexin V-FITC/PI staining based flow cytometry (reference value: 2.39 %)", "format": "functional"}, "B16-F10 [3]": {"tested_on": "B16-F10", "assay": "Induction of apoptosis in mouse B16-F10 cells assessed as late apoptotic cells at 1 nM incubated for 12 hrs by Annexin V-FITC/PI staining based flow cytometry (reference value: 2.39 %)", "format": "functional"}, "B16-F10 [4]": {"tested_on": "B16-F10", "assay": "Induction of cell cycle arrest in mouse B16-F10 cells assessed as accumulation of cells at G1 phase at 0.5 nM incubated for 12 hrs by flow cytometry (reference value: 52.0 %)", "format": "functional"}, "B16-F10 [5]": {"tested_on": "B16-F10", "assay": "Inhibition of cell migration in mouse B16-F10 cells assessed as reduction in wound closure incubated for 24 hrs by wound healing assay", "format": "functional, cell-based"}, "NCI-H23": {"tested_on": "NCI-H23", "assay": "Antiproliferative activity against human NCI-H23 cells incubated for 48 hrs by MTT assay", "format": "functional, cell-based", "conditions": "NCI-H23, 48 h"}, "MCF7 [6]": {"tested_on": "MCF7", "assay": "Inhibition of cell migration in human MCF7 cells assessed as reduction in wound closure incubated for 24 hrs by wound healing assay", "format": "functional, cell-based"}, "[7]": {"assay": "Toxicity in C57 mouse xenografted with mouse B16-F10 cells assessed as morphological abnormality in kidney at 3.5 mg/kg, ip qd for 12 days in presence of NP-19 by H and E staining based analysis", "format": "organism-based", "conditions": "in vivo, 288 h, time 12 day"}, "[8]": {"assay": "Toxicity in C57 mouse xenografted with mouse B16-F10 cells assessed as morphological abnormality in heart at 3.5 mg/kg, ip qd for 12 days in presence of NP-19 by H and E staining based analysis", "format": "organism-based", "conditions": "in vivo, 288 h, time 12 day"}, "B16-F10 [9]": {"tested_on": "B16-F10", "assay": "Induction of apoptosis in mouse B16-F10 cells assessed as necrotic cells at 2 nM incubated for 12 hrs by Annexin V-FITC/PI staining based flow cytometry (reference value: 0.25 %)", "format": "functional"}, "B16-F10 [10]": {"tested_on": "B16-F10", "assay": "Induction of cell cycle arrest in mouse B16-F10 cells assessed as accumulation of cells at G1 phase at 1 nM incubated for 12 hrs by flow cytometry (reference value: 52.0 %)", "format": "functional"}, "B16-F10 [11]": {"tested_on": "B16-F10", "assay": "Inhibition of cell migration in mouse B16-F10 cells assessed as migration rate at 2 nM incubated for 24 hrs by wound healing assay (reference value: 61.1 %)", "format": "functional", "parameters": "scale not given: the % may be the effect or the level left"}, "B16-F10 [12]": {"tested_on": "B16-F10", "assay": "Induction of apoptosis in mouse B16-F10 cells assessed as early apoptotic cells at 1 nM incubated for 12 hrs by Annexin V-FITC/PI staining based flow cytometry (reference value: 3.81 %)", "format": "functional"}, "[13]": {"assay": "Toxicity in C57 mouse xenografted with mouse B16-F10 cells assessed as lymphocytes level at 3.5 mg/kg, ip qd for 12 days in presence of NP-19 by biochemical analysis (reference value: 7.300 to 65.500 %)", "format": "organism-based", "conditions": "in vivo, 288 h, time 12 day"}, "B16-F10 [14]": {"tested_on": "B16-F10", "assay": "Induction of apoptosis in mouse B16-F10 cells assessed as late apoptotic cells at 0.5 nM incubated for 12 hrs by Annexin V-FITC/PI staining based flow cytometry (reference value: 2.39 %)", "format": "functional"}, "[15]": {"assay": "Toxicity in C57 mouse xenografted with mouse B16-F10 cells assessed as lymphocytes level at 7 mg/kg, ip qd for 12 days by biochemical analysis (reference value: 7.300 to 65.500 %)", "format": "organism-based", "conditions": "in vivo, 288 h, time 12 day"}, "MCF7 [16]": {"tested_on": "MCF7", "assay": "Inhibition of cell migration in human MCF7 cells assessed as migration rate at 4 nM incubated for 24 hrs by wound healing assay (reference value: 18.1 %)", "format": "functional", "parameters": "scale not given: the % may be the effect or the level left"}, "MCF7 [17]": {"tested_on": "MCF7", "assay": "Induction of apoptosis in human MCF7 cells assessed as increase in Bax level upto 30 nM incubated for 24 hrs by Western blot analysis", "format": "functional, cell-based"}, "B16-F10 [18]": {"tested_on": "B16-F10", "assay": "Induction of apoptosis in mouse B16-F10 cells assessed as necrotic cells at 0.5 nM incubated for 12 hrs by Annexin V-FITC/PI staining based flow cytometry (reference value: 0.25 %)", "format": "functional"}, "[19]": {"assay": "Toxicity in C57 mouse xenografted with mouse B16-F10 cells assessed as neutrophil count at 7 mg/kg, ip qd for 12 days by biochemical analysis (reference value: 2.130 to 5.46 10^9/L)", "format": "organism-based", "conditions": "in vivo, 288 h, time 12 day"}, "B16-F10 [20]": {"tested_on": "B16-F10", "assay": "Induction of cell cycle arrest in mouse B16-F10 cells assessed as accumulation of cells at S phase at 0.5 nM incubated for 12 hrs by flow cytometry (reference value: 30.5 %)", "format": "functional"}, "B16-F10 [21]": {"tested_on": "B16-F10", "assay": "Antiproliferative activity against mouse B16-F10 cells incubated for 48 hrs by MTT assay", "format": "functional, cell-based", "conditions": "B16-F10, 48 h"}, "[22]": {"assay": "Toxicity in C57 mouse xenografted with mouse B16-F10 cells assessed as body weight change at 3.5 mg/kg, ip qd for 12 days in presence of NP-19", "format": "organism-based", "conditions": "in vivo, 288 h, time 12 day"}, "[23]": {"assay": "Toxicity in C57 mouse xenografted with mouse B16-F10 cells assessed as WBC count at 3.5 mg/kg, ip qd for 12 days in presence of NP-19 by biochemical analysis (reference value: 8.240 to 8.340 10^9/L)", "format": "organism-based", "conditions": "in vivo, 288 h, time 12 day"}, "HeLa": {"tested_on": "HeLa", "assay": "Antiproliferative activity against human HeLa cells incubated for 48 hrs by MTT assay", "format": "functional, cell-based"}, "[24]": {"assay": "Toxicity in C57 mouse xenografted with mouse B16-F10 cells assessed as MCV level at 7 mg/kg, ip qd for 12 days by biochemical analysis (reference value: 15.800 to 48.900 fL)", "format": "organism-based", "conditions": "in vivo, 288 h, time 12 day"}, "[25]": {"assay": "Toxicity in C57 mouse xenografted with mouse B16-F10 cells assessed as neutrophil count at 3.5 mg/kg, ip qd for 12 days in presence of NP-19 by biochemical analysis (reference value: 2.130 to 5.46 10^9/L)", "format": "organism-based", "conditions": "in vivo, 288 h, time 12 day"}, "[26]": {"assay": "Inhibition of pig brain tubulin polymerization by spectrophotometric method"}, "B16-F10 [27]": {"tested_on": "B16-F10", "assay": "Induction of apoptosis in mouse B16-F10 cells assessed as early apoptotic cells at 2 nM incubated for 12 hrs by Annexin V-FITC/PI staining based flow cytometry (reference value: 3.81 %)", "format": "functional"}, "B16-F10 [28]": {"tested_on": "B16-F10", "assay": "Induction of cell cycle arrest in mouse B16-F10 cells assessed as accumulation of cells at G1 phase at 2 nM incubated for 12 hrs by flow cytometry (reference value: 52.0 %)", "format": "functional"}, "B16-F10 [29]": {"tested_on": "B16-F10", "assay": "Induction of apoptosis in mouse B16-F10 cells assessed as viable cells at 1 nM incubated for 12 hrs by Annexin V-FITC/PI staining based flow cytometry (reference value: 93.6 %)", "format": "functional", "conditions": "read-out: Activity"}, "[30]": {"assay": "Toxicity in C57 mouse xenografted with mouse B16-F10 cells assessed as basophil count at 7 mg/kg, ip qd for 12 days by biochemical analysis (reference value: 0.060 to 25.500 10^9/L)", "format": "organism-based", "conditions": "in vivo, 288 h, time 12 day"}, "[31]": {"assay": "Toxicity in C57 mouse xenografted with mouse B16-F10 cells assessed as RDW-CV at 7 mg/kg, ip qd for 12 days by biochemical analysis (reference value: 14.300 to 14.300)", "format": "organism-based", "conditions": "in vivo, 288 h, time 12 day"}, "[32]": {"assay": "Toxicity in C57 mouse xenografted with mouse B16-F10 cells assessed as morphological abnormality in heart at 7 mg/kg, ip qd for 12 days by H and E staining based analysis", "format": "organism-based", "conditions": "in vivo, 288 h, time 12 day"}}, "note": "Activity calls are given as the source filed them. No cut-off for these calls is given here."}
{"smiles": "Cc1nc(N(C)c2ccc3c(ccn3C)c2)c2sccc2n1", "values": [{"measurement": "Activity", "setting": "[1]", "result": 322, "unit": "g/L"}, {"measurement": "Activity", "setting": "B16-F10 [2]", "result": 8.65, "unit": "%"}, {"measurement": "Activity", "setting": "B16-F10 [3]", "result": 7.92, "unit": "%"}, {"measurement": "Activity", "setting": "B16-F10 [4]", "result": 21.3, "unit": "%"}, {"measurement": "inhibition", "setting": "B16-F10 [5]", "result": "Dose-Dependent Effect"}, {"measurement": "IC50", "setting": "NCI-H23", "result": 8.94, "unit": "nM"}, {"measurement": "inhibition", "setting": "MCF7 [6]", "result": "Dose-Dependent Effect"}, {"measurement": "Activity", "setting": "[7]", "result": "Non-Toxic"}, {"measurement": "Activity", "setting": "[8]", "result": "Non-Toxic"}, {"measurement": "Activity", "setting": "B16-F10 [9]", "result": 1.76, "unit": "%"}, {"measurement": "Activity", "setting": "B16-F10 [10]", "result": 13.8, "unit": "%"}, {"measurement": "Activity", "setting": "B16-F10 [11]", "result": 34.6, "unit": "%"}, {"measurement": "Activity", "setting": "B16-F10 [12]", "result": 11, "unit": "%"}, {"measurement": "Activity", "setting": "[13]", "result": 2.4, "unit": "%"}, {"measurement": "Activity", "setting": "B16-F10 [14]", "result": 7.06, "unit": "%"}, {"measurement": "Activity", "setting": "[15]", "result": 2.2, "unit": "%"}, {"measurement": "Activity", "setting": "MCF7 [16]", "result": 3.23, "unit": "%"}, {"measurement": "Activity", "setting": "MCF7 [17]", "result": "Active"}, {"measurement": "Activity", "setting": "B16-F10 [18]", "result": 1.44, "unit": "%"}, {"measurement": "Activity", "setting": "[19]", "result": "0.85 10^9/L"}, {"measurement": "Activity", "setting": "B16-F10 [20]", "result": 15.9, "unit": "%"}, {"measurement": "IC50", "setting": "B16-F10 [21]", "result": 11.7, "unit": "nM"}, {"measurement": "Activity", "setting": "[22]", "result": "Non-Toxic"}, {"measurement": "Activity", "setting": "[23]", "result": "4.22 10^9/L"}, {"measurement": "IC50", "setting": "HeLa", "result": 5.37, "unit": "nM"}, {"measurement": "Activity", "setting": "[24]", "result": 15.8, "unit": "fL"}, {"measurement": "Activity", "setting": "[25]", "result": "1.38 10^9/L"}, {"measurement": "IC50", "setting": "[26]", "result": 2540, "unit": "nM"}, {"measurement": "Activity", "setting": "B16-F10 [27]", "result": 14.2, "unit": "%"}, {"measurement": "Activity", "setting": "B16-F10 [28]", "result": 5.24, "unit": "%"}, {"measurement": "viability at 0.001 µM", "setting": "B16-F10 [29]", "result": 77.1, "unit": "%"}, {"measurement": "Activity", "setting": "[30]", "result": "0.01 10^9/L"}, {"measurement": "Activity", "setting": "[31]", "result": 14.2}, {"measurement": "Activity", "setting": "[32]", "result": "Non-Toxic"}]}
